Structures are written as SMILES. Counter-ions that a name gives are not always drawn.

This assay addresses T1, acid ceramidase (hACR) (Homo sapiens, UniProt Q13510).
T1 construct: expressed in transfected cells; cell lysate used
T1 sequence (Q13510 143-395 limits assumed): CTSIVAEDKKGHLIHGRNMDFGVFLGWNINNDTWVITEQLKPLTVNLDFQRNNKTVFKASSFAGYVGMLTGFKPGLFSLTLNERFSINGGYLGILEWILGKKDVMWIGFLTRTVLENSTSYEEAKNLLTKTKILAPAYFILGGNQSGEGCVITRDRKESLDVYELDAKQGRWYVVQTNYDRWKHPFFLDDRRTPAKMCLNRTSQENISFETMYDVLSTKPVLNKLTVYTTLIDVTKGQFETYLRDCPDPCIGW
T1 sequence (Q13510 22-142 limits assumed): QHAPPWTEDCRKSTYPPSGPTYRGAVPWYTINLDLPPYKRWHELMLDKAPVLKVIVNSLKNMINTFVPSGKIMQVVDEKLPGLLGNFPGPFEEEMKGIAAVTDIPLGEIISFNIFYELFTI
Nature of the assay: Acid ceramidase inhibition, biochemical fluorescent assay with cell lysates overexpressing acid ceramidase, substrate Rbm14-12. Conditions: cell lysates overexpressing acid ceramidase; 1 hr preincubation at RT; pH 4.5; substrate Rbm14-12 6.3 μM; read-out: hACR IC50. As for the experimental part:
The ability of exemplary compounds to inhibit acid ceramidase was measured.
Cell lysates overexpressing acid ceramidase were used as the enzyme source for compound potency determination in a biochemical fluorescent assay. Briefly, compounds were preincubated with 10 µg protein of cell lysates in a dose-response manner for 1 hr at RT in the assay buffer containing 25 mM NaAC and 100 mM NaCl, pH 4.5. The reaction was initiated by the addition of substrate Rbm14-12 at a final concentration of 6.3 μM. The reaction was run at RT for 1 hr before it was stopped by the addition of the stopping buffer containing 20% methanol (v/v), 1 mg/ml NaIO4, 0.1 M glycine, pH 10.6. The samples were incubated with the stopping buffer at RT for 1 hr to allow the fluorescent product to be formed. Finally the plate was read with SpectraMax i3 plate reader (Molecular Devices) at ex360 nm and em446 nm. Data were collected and used to determine the IC50 values of compounds by curve fitting to the four-parameter inhibition equation.
The symbol “A” indicates inhibition of less than 0.2 μM; the symbol “B” indicates inhibition in the range of 0.2 μM up to 1 μM; and the symbol “C” indicates inhibition of greater than 1 μM.
What is called IC50 is the point on the concentration scale where inhibition reaches its midpoint. For `CN1CCN(C2CCN(C(=O)NCCCCc3ccccc3)C(C)(C)C2)CC1` (stereo not drawn) [Example 87, 2,2-Dimethyl-4-(4-methylpiperazin-1-yl)-N-(4-phenylbutyl)piperidine-1-carboxamide dihydrochloride], the IC50 was under 0.2 µM.

For the molecule `CCCCCNC(=O)N1[C@@H]2CC[C@H]1C[C@H](N1CCCCC1)C2` [Example 102, Exo-N-Pentyl-3-(1-piperidyl)-8-azabicyclo[3.2.1]octane-8-carboxamide], the IC50 is over 1 µM. Turning to `CC1CN(C(=O)NCCCCc2ccccc2)C(C)(C)CC1=O` (stereo not drawn) [Example 119, 2,2,5-Trimethyl-4-oxo-N-(4-phenylbutyl)piperidine-1-carboxamide], the IC50 is over 1 µM. For `CC1(C)CCc2c(-c3ccccn3)cccc2N1C(=O)NCCc1ccccc1` [Example 5, 2,2-Dimethyl-N-phenethyl-5-(pyridin-2-yl)-3,4-dihydroquinoline-1(2H)-carboxamide], the IC50 was over 1 µM. For `CCCCCNC(=O)N1C(c2ccc(OC)nc2)COCC1(C)C` (stereo not drawn) [Example 159, 5-(6-Methoxy-3-pyridyl)-3,3-dimethyl-N-pentylmorpholine-4-carboxamide] the value was under 0.2 µM; for `CC1(C)CN(c2ccccc2)CCN1C(=O)NCCCCc1ccccc1` [Example 103, 2,2-Dimethyl-4-phenyl-N-(4-phenylbutyl)piperazine-1-carboxamide], under 0.2 µM.

`CC1(C)CN(C2CC2)CC(c2ccccc2)N1C(=O)NCCCCc1ccccc1` (stereo not drawn) [Example 169, 4-Cyclopropyl-2,2-dimethyl-6-phenyl-N-(4-phenylbutyl)piperazine-1-carboxamide]: the IC50 is under 0.2 µM. Consider `COc1ccc(C2COCC(C)(C)N2C(=O)NCc2ccc(F)cc2)cc1` (stereo not drawn) [Example 151, N-[(4-Fluorophenyl)methyl]-5-(4-methoxyphenyl)-3,3-dimethylmorpholine-4-carboxamide], for which the IC50 was under 0.2 µM. With `CCCCCNC(=O)N1CCN(C2CC2)C[C@@H]1C(C)C` [Example 118, (2S)-4-Cyclopropyl-2-isopropyl-N-pentylpiperazine-1-carboxamide], the IC50 is over 1 µM. Turning to `CC1(C)COCC(c2ccc(F)cc2)N1C(=O)NCCCCc1ccccc1` (stereo not drawn) [Example 136, 5-(4-Fluorophenyl)-3,3-dimethyl-N-(4-phenylbutyl)morpholine-4-carboxamide], the IC50 is under 0.2 µM. Take `CC1(C)CC(N2CCCCC2)C(Cc2ccccc2)CN1C(=O)NCCCCc1ccccc1` (stereo not drawn) [Example 125, 5-Benzyl-2,2-dimethyl-N-(4-phenylbutyl)-4-(1-piperidyl)piperidine-1-carboxamide]: the IC50 is under 0.2 µM. As for `COc1ccc(C2COCC(C)(C)N2C(=O)NCCCCC2CC2)cc1` (stereo not drawn) [Example 149, N-(4-Cyclopropylbutyl)-5-(4-methoxyphenyl)-3,3-dimethylmorpholine-4-carboxamide], the IC50 is under 0.2 µM. As for `CC1(C)CCC(N2CCCCC2)CN1C(=O)NCCCCc1ccccc1` (stereo not drawn) [Example 99, 2,2-Dimethyl-N-(4-phenylbutyl)-5-(1-piperidyl)piperidine-1-carboxamide], the IC50 is under 0.2 µM.

As for `COc1ccc(C2COCC(C)(C)N2C(=O)NCC(F)(F)F)cc1` (stereo not drawn) [Example 152, 5-(4-Methoxyphenyl)-3,3-dimethyl-N-(2,2,2-trifluoroethyl)morpholine-4-carboxamide], the IC50 was over 1 µM. For the molecule `CCCCCNC(=O)N1C(c2ccccc2C)COCC1(C)C` (stereo not drawn) [Example 158, 3,3-Dimethyl-5-(o-tolyl)-N-pentylmorpholine-4-carboxamide], the IC50 was under 0.2 µM. With `CCCCCNC(=O)N1CCC(N2CCCCC2)CC1C` (stereo not drawn) [Example 95, 2-Methyl-N-pentyl-4-(1-piperidyl)piperidine-1-carboxamide], the IC50 lay within 0.2 to 1 µM. For `CCCCCNC(=O)N1CCN(c2ccccc2)C(=O)C1(C)C` [Example 107, 2,2-Dimethyl-3-oxo-N-pentyl-4-phenylpiperazine-1-carboxamide] the value was 0.2 to 1 µM; for `CC1(C)COCC(c2ccccc2)N1C(=O)NCCCCc1ccccc1` (stereo not drawn) [Example 133, 3,3-Dimethyl-5-phenyl-N-(4-phenylbutyl)morpholine-4-carboxamide], under 0.2 µM; for `CCCCCNC(=O)N1CC(c2ccccc2)C(N2CCCCC2)CC1(C)C` (stereo not drawn) [Example 131, 2,2-Dimethyl-N-pentyl-5-phenyl-4-(1-piperidyl)piperidine-1-carboxamide], under 0.2 µM. Consider `COc1ccc(C2COCC(C)(C)N2C(=O)NCC(C)C)cc1` (stereo not drawn) [Example 143, N-iso-Butyl-5-(4-methoxyphenyl)-3,3-dimethylmorpholine-4-carboxamide], for which the IC50 is under 0.2 µM. With `CC1(C)CC(N2CCCCC2)/C(=C/c2ccccc2)CN1C(=O)NCCCCc1ccccc1` (stereo not drawn) [Example 128, (5E)-5-Benzylidene-2,2-dimethyl-N-(4-phenylbutyl)-4-(1-piperidyl)piperidine-1-carboxamide], the IC50 was under 0.2 µM. For `CCCCCNC(=O)N1C(c2ccc(F)cc2)COCC1(C)C` (single isomer, unassigned) [Example 138, (5S) or (5R)-5-(4-Fluorophenyl)-3,3-dimethyl-N-pentylmorpholine-4-carboxamide] the value was under 0.2 µM. On to `CCCCCNC(=O)N1CC(Cc2ccccc2)C(N2CCCCC2)CC1(C)C` (stereo not drawn) [Example 127, 5-Benzyl-2,2-dimethyl-N-pentyl-4-(1-piperidyl)piperidine-1-carboxamide], for which the IC50 is under 0.2 µM.

On to `COc1ccc(C2COCC(C)(C)N2C(=O)NCCC2CC2)cc1` (stereo not drawn) [Example 146, N-(2-Cyclopropylethyl)-5-(4-methoxyphenyl)-3,3-dimethylmorpholine-4-carboxamide], for which the IC50 was under 0.2 µM. The value for `CCCCCNC(=O)N1C(c2ccc(F)cc2)CN(C)CC1(C)C` (stereo not drawn) [Example 167, 6-(4-Fluorophenyl)-2,2,4-trimethyl-N-pentylpiperazine-1-carboxamide hydrochloride] was under 0.2 µM. Consider `CCCCCNC(=O)N1C(c2ccc(F)c(OC)c2)COCC1(C)C` (stereo not drawn) [Example 163, 5-(4-Fluoro-3-methoxyphenyl)-3,3-dimethyl-N-pentylmorpholine-4-carboxamide], for which the IC50 was under 0.2 µM. As to `CC1(C)CC(N2CCC(c3ccccc3)CC2)CCN1C(=O)NCCCCc1ccccc1` (stereo not drawn) [Example 93, 2,2-Dimethyl-N-(4-phenylbutyl)-4-(4-phenyl-1-piperidyl)piperidine-1-carboxamide], the IC50 was under 0.2 µM. With `CN1CC(C)(C)N(C(=O)NCCCCc2ccccc2)CC1c1ccccc1` (stereo not drawn) [Example 166, 2,2,4-Trimethyl-5-phenyl-N-(4-phenylbutyl)piperazine-1-carboxamide], the IC50 was under 0.2 µM.

Regarding `CC1(C)CC(N2CCCCC2c2ccccc2)CCN1C(=O)NCCCCc1ccccc1` (mixture of isomers) [Example 91, 2,2-Dimethyl-N-(4-phenylbutyl)-4-(2-phenyl-1-piperidyl)piperidine-1-carboxamide], the IC50 is over 1 µM.

`CC(C)[C@@H]1CN(C2CC2)CCN1C(=O)NCCCCc1ccccc1` [Example 116, (2R)-4-Cyclopropyl-2-isopropyl-N-(4-phenylbutyl)piperazine-1-carboxamide]: the IC50 lay within 0.2 to 1 µM. Take `CCCCCNC(=O)N1CCC(N2CCCCC2)CC1(C)C` (stereo not drawn) [Example 84, 2,2-Dimethyl-N-pentyl-4-(1-piperidyl)piperidine-1-carboxamide]: the IC50 was under 0.2 µM.

For the molecule `CC1(C)CN(C(=O)OCc2ccccc2)CC(c2ccccc2)N1C(=O)NCCCCc1ccccc1` (stereo not drawn) [Example 164, Benzyl 3,3-dimethyl-5-phenyl-4-(4-phenylbutylcarbamoyl)piperazine-1-carboxylate], the IC50 was over 1 µM.

With `COc1ccc(C2COCC(C)(C)N2C(=O)NCCc2ccc(F)cc2)cc1` (stereo not drawn) [Example 148, N-[2-(4-Fluorophenyl)ethyl]-5-(4-methoxyphenyl)-3,3-dimethylmorpholine-4-carboxamide], the IC50 was under 0.2 µM. For the molecule `COc1ccc(C2COCC(C)(C)N2C(=O)NCC2CCCCC2)cc1` (stereo not drawn) [Example 150, N-(Cyclohexylmethyl)-5-(4-methoxyphenyl)-3,3-dimethylmorpholine-4-carboxamide], the IC50 was under 0.2 µM. For `CC1CC(N2CCCCC2)CCN1C(=O)NCCCCc1ccccc1` (mixture of isomers) [Example 94, 2-Methyl-N-(4-phenylbutyl)-4-(1-piperidyl)piperidine-1-carboxamide], the IC50 is under 0.2 µM.

Turning to `COc1cc(N2CCN(C(=O)NCCCCc3ccccc3)C(C)(C)C2=O)ccc1F` [Example 109, 4-(4-Fluoro-3-methoxy-phenyl)-2,2-dimethyl-3-oxo-N-(4-phenylbutyl)piperazine-1-carboxamide], the IC50 was under 0.2 µM.

The values are drawn from patent publication US20220380314A1, “SUBSTITUTED, SATURATED AND UNSATURATED N-HETEROCYCLIC CARBOXAMIDES AND RELATED COMPOUNDS FOR THEIR USE IN THE TREATMENT OF MEDICAL DISORDERS” (Bial - R&D Investments, S.A., priority 2019, published 2022).
